In patent US20230278993A1, “NOVEL TRICYCLIC AROMATIC HETEROCYCLIC COMPOUND AND PREPARATION METHOD THEREFOR, PHARMACEUTICAL COMPOSITION AND USE THEREOF” (SHANGHAI LONGWOOD BIOPHARMACEUTICALS CO., LTD., priority 2020, published 2023):

The compounds below were run against PD-1/PD-L1 (Homo sapiens (Human), UniProt Q9NZQ7) (assay: PD-1/PD-L1 homogeneous time-resolved fluorescence (HTRF) binding assay). Settings: recombinant human PD-L1 (19-238) His-tagged, human PD-1 (25-167) Fc tag; 25° C., PBS pH 7.4.
PD-1/PD-L1, sequence (Q9NZQ7 19-238): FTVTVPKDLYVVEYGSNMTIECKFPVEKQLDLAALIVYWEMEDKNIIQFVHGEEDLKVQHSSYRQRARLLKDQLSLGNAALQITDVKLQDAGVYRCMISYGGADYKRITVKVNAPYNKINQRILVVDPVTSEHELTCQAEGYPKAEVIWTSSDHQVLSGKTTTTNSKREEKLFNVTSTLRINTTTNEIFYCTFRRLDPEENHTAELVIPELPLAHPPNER
Procedure: Example A: PD-1/PD-L1 Homogeneous Time-Resolved Fluorescence (HTRF) Binding Assay
Assays were performed in standard black 384-well polystyrene plates and a final volume was 20 μL. The inhibitor was first serially diluted with DMSO and added to the wells of the plate, followed by the addition of other reaction components. The final concentration of DMSO in the assay was 1%. Assays were performed at 25° C. in PBS buffer (pH 7.4) containing 0.05% Tween-20 and 0.1% BSA. Recombinant human PD-L1 protein (19-238) with a His-tagged at the C-terminus was purchased from AcroBiosystems (PD1-H5229). Recombinant human PD-1 protein (25-167) with an Fc tag at the C-terminus was also purchased from AcroBiosystems (PD1-H5257). The PD-L1 and PD-1 proteins were diluted in assay buffer and then […] of the solution was extracted and added to the wells of the plate. Plates were centrifuged and proteins and inhibitors were preincubated for 40 minutes. After incubation, […] of HTRF detection buffer containing europium […] labeled anti-human IgG (PerkinElmer-AD0212), Fc-specific and anti-His SureLight@-Allophycocyanin (APC, PerkinElmer-AD0059H) conjugated antibodies was added. After centrifugation, the plates were incubated at 25° C. for 60 minutes. Data was read in a PHERAstar FS plate reader (665 nm/620 nm ratio). Final concentrations in the assay were ˜3 nM of PD1, 10 nM of PD-L1, 1 nM of europium anti-human IgG, and 20 nM of anti-His-allophycocyanin. Activity data were fitted using GraphPad Prism 5.0 software to derive IC50 values for inhibitors.
The IC50 values of the compounds exemplified in the examples are expressed in the following manner: IC50: +: ≤100 nM; ++: 100 nM˜1000 nM; +++: >1000 nM. The data of the example compounds obtained using the PD-1/PD-L1 homogeneous time-resolved fluorescence (HTRF) binding assay described in Example A were provided in Table 1.

| IC50 [µM] | Compound |
| --- | --- |
| ≤ 0.1 | N#Cc1c2c(cc3nc(-c4cccc(-c5ccc6c(c5)OCCO6)c4Cl)oc13)[C@@H](N1CC[C@@H](C(=O)O)C1)CC2 [Compound 026] |
| ≤ 0.1 | Cc1c(-c2ccc3c(c2)OCCO3)cccc1-c1cc2cc3c(c(C#N)c2o1)CC[C@H]3N1CC[C@@H](C(=O)O)C1 [Compound 013] |
| ≤ 0.1 | N#Cc1c2c(cc3nc(-c4cccc(-c5ccc6c(c5)OCCO6)c4Cl)oc13)[C@H](NCCC(=O)O)CC2 [Compound 050] |
| ≤ 0.1 | N#Cc1c2c(cc3nc(-c4cccc(-c5ccc6c(c5)OCCO6)c4Cl)oc13)[C@H](N1CC[C@@H](C(=O)NS(=O)(=O)C3CC3)C1)CC2 [Compound 025] |
| ≤ 0.1 | Cc1c(-c2ccc3c(c2)OCCO3)cccc1-c1nc2cc3c(c(C#N)c2o1)CC[C@H]3NCCC(=O)O [Compound 049] |
| ≤ 0.1 | Cc1c(-c2ccc3c(c2)OCCO3)cccc1-c1nc2cc3c(c(C#N)c2o1)CC[C@H]3N1CC[C@@H](C(=O)O)C1 [Compound 047] |
| ≤ 0.1 | O=C(O)[C@@H]1CCN([C@@H]2CCc3c2cc2cc(-c4cccc(-c5ccccc5)c4Cl)oc2c3F)C1 [Compound 005] |
